Data reported in PMC5574958, “Radiosynthesis and Preclinical Evaluation of [^18F]F-DPA, A Novel Pyrazolo[1,5a]pyrimidine Acetamide TSPO Radioligand, in Healthy Sprague Dawley Rats” (Molecular Imaging and Biology, 2017).

How the values were obtained:
TSPO = details: read-out: K i (TSPO affinity); cited from earlier work
CBR = details: read-out: K i CBR (selectivity); cited from earlier work
Ex vivo biodistribution = assay type: in vivo, Sprague Dawley rats; details: for Uptake of fluorine-18-radioactivity, Harderian gland / Uptake of fluorine-18-radioactivity, Brain / Uptake of fluorine-18-radioactivity, Brown fat / Uptake of fluorine-18-radioactivity, Eye x2 / Uptake of fluorine-18-radioactivity, Injection site (tail) / Uptake of fluorine-18-radioactivity, Large int. Wall + contents / Uptake of fluorine-18-radioactivity, Liver / Uptake of fluorine-18-radioactivity, Lung / Uptake of fluorine-18-radioactivity, Muscle / Uptake of fluorine-18-radioactivity, Salivary x2 / Uptake of fluorine-18-radioactivity, Small int. wall + contents / Uptake of fluorine-18-radioactivity, Stomach wall + contents / Uptake of fluorine-18-radioactivity, Testis: mean, n = 3
Protocol: After sacrifice (5, 15, 30, 60, and 90 min after injection, n = 3, for every time point and radiotracer), the blood was collected into Li-heparin tubes and transcardial perfusion with saline was conducted rapidly in order to eliminate the blood from the whole body. Following this, the organs of the animals were collected, individually weighed, and the radioactivity was measured using a gamma counter (Wizard^2 3 × 3″, PerkinElmer, Turku, Finland). The decay-corrected radioactivity is reported as percentage of injected dose per gram (%ID/g).

[1] = Plasma protein binding (ultrafiltration of plasma after tracer injection); assay type: in vivo, Sprague Dawley rats; details: 15 min after injection, 30 kDa ultrafiltration, n = 3
Protocol: After 15 min, the animals were sacrificed and the blood was collected into Li-heparin tubes and centrifuged (3000×g, 10 min). A 10-μl aliquot of the plasma was spotted onto a TLC plate; following this, the remaining plasma was filtered by ultrafiltration using Microsep 30K Omega (Pall Life Sciences, Mexico) with a cut-off of 30 kDa. A 10-μl aliquot of the resulting supernatant was also spotted onto the TLC plate. The plates were exposed onto an imaging plate (Fuji BAS Imaging Plate TR2025, Fuji Photo Film Co., Ltd., Tokyo, Japan) for approximately two half-lives of fluorine-18 (3.5 to 4 h). After the exposure, the imaging plates were scanned using a BAS-5000 reader (Fuji, Japan) with a resolution of 50 μm and the saved images were analyzed using TINA software (version 2.10 g, Raytest, Isotopenmessgeräte, GmbH, Straubenhardt, Germany).

[2] = RadioTLC analyses of radiometabolites in plasma and brain homogenates; assay type: in vivo, Sprague Dawley rats; details: 90 min after injection, n = 3
Protocol: The blood samples were taken into Li-heparin tubes and centrifuged (3000×g, 10 min). The plasma was transferred to an Eppendorf tube and the plasma proteins were precipitated by addition of 1.5 parts of MeOH by volume. Following a further centrifugation (12,000×g, 4 min), 20 μl of the supernatant was spotted onto an aluminum-backed silica gel 60/Kieselguhr F254 TLC plate (EMD Millipore 1.05567.0001, Merck Millipore, Darmstadt, Germany).
Brain samples from the cortex were homogenized with approximately 200 μl of 1:1 v/v of MeOH and water; the mixture was transferred to an Eppendorf tube and centrifuged (12,000×g, 4 min). An aliquot (20 μl) of the supernatant was spotted onto the TLC plate.
The TLC plates were developed with a mixture of dichloromethane and methanol (9:1, v/v) for a distance of 6 cm. Following this, the plates were exposed onto an imaging plate (Fuji BAS Imaging Plate TR2025, Fuji Photo Film Co., Ltd., Tokyo, Japan) for approximately two half-lives of fluorine-18 (3.5 to 4 h). After the exposure, the imaging plates were scanned using a BAS-5000 reader (Fuji, Japan) with a resolution of 50 μm and the saved images were analyzed using TINA software (version 2.10 g, Raytest, Isotopenmessgeräte, GmbH, Straubenhardt, Germany).

SMILES: CCN(CC)C(=O)Cc1c(-c2ccc(F)cc2)nn2c(C)cc(C)nc12 [F-DPA, N,N-Diethyl-2-(2-(4-fluorophenyl)-5,7-dimethylpyrazolo[1,5-a]pyrimidin-3-yl)acetamide]
- Ki (TSPO): 1.7 nM
- Ki (CBR): > 1000 nM

SMILES: CCN(CC)C(=O)Cc1c(-c2ccc(OCC[18F])cc2)nn2c(C)cc(C)nc12 [[^18F]DPA-714, reference compound]
- Uptake of fluorine-18-radioactivity, Harderian gland (Ex vivo biodistribution; 5 min after injection): 0.40 %ID/g tissue
- Uptake of fluorine-18-radioactivity, Harderian gland (Ex vivo biodistribution; 15 min after injection): 0.52 %ID/g tissue
- Uptake of fluorine-18-radioactivity, Harderian gland (Ex vivo biodistribution; 30 min after injection): 0.45 %ID/g tissue
- Uptake of fluorine-18-radioactivity, Harderian gland (Ex vivo biodistribution; 60 min after injection): 0.54 %ID/g tissue
- Uptake of fluorine-18-radioactivity, Harderian gland (Ex vivo biodistribution; 90 min after injection): 0.43 %ID/g tissue
- Accumulation of radioactivity in the bone (defluorination in vivo) (Ex vivo biodistribution; after the initial uptake at 5 min, up to 90 min): no significant accumulation of radioactivity in the bone
- Uptake of fluorine-18-radioactivity, Brain (Ex vivo biodistribution; 5 min after injection): 0.29 %ID/g tissue
- Uptake of fluorine-18-radioactivity, Brain (Ex vivo biodistribution; 15 min after injection): 0.17 %ID/g tissue
- Uptake of fluorine-18-radioactivity, Brain (Ex vivo biodistribution; 30 min after injection): 0.12 %ID/g tissue
- Uptake of fluorine-18-radioactivity, Brain (Ex vivo biodistribution; 60 min after injection): 0.09 %ID/g tissue
- Uptake of fluorine-18-radioactivity, Brain (Ex vivo biodistribution; 90 min after injection): 0.08 %ID/g tissue
- Uptake of fluorine-18-radioactivity, Brown fat (Ex vivo biodistribution; 5 min after injection): 0.22 %ID/g tissue
- Uptake of fluorine-18-radioactivity, Brown fat (Ex vivo biodistribution; 15 min after injection): 0.31 %ID/g tissue
- Uptake of fluorine-18-radioactivity, Brown fat (Ex vivo biodistribution; 30 min after injection): 0.51 %ID/g tissue
- Uptake of fluorine-18-radioactivity, Brown fat (Ex vivo biodistribution; 60 min after injection): 1.07 %ID/g tissue
- Uptake of fluorine-18-radioactivity, Brown fat (Ex vivo biodistribution; 90 min after injection): 1.25 %ID/g tissue
- Uptake of fluorine-18-radioactivity, Eye x2 (Ex vivo biodistribution; eye x2, 5 min after injection): 0.28 %ID/g tissue
- Uptake of fluorine-18-radioactivity, Eye x2 (Ex vivo biodistribution; eye x2, 15 min after injection): 0.29 %ID/g tissue
- Uptake of fluorine-18-radioactivity, Eye x2 (Ex vivo biodistribution; eye x2, 30 min after injection): 0.26 %ID/g tissue
- Uptake of fluorine-18-radioactivity, Eye x2 (Ex vivo biodistribution; eye x2, 60 min after injection): 0.22 %ID/g tissue
- Uptake of fluorine-18-radioactivity, Eye x2 (Ex vivo biodistribution; eye x2, 90 min after injection): 0.20 %ID/g tissue
- Uptake of fluorine-18-radioactivity, Injection site (tail) (Ex vivo biodistribution; 5 min after injection): 0.49 %ID/g tissue
- Uptake of fluorine-18-radioactivity, Injection site (tail) (Ex vivo biodistribution; 15 min after injection): 0.29 %ID/g tissue
- Uptake of fluorine-18-radioactivity, Injection site (tail) (Ex vivo biodistribution; 30 min after injection): 0.34 %ID/g tissue
- Uptake of fluorine-18-radioactivity, Injection site (tail) (Ex vivo biodistribution; 60 min after injection): 0.38 %ID/g tissue
- Uptake of fluorine-18-radioactivity, Injection site (tail) (Ex vivo biodistribution; 90 min after injection): 0.24 %ID/g tissue
- Uptake of fluorine-18-radioactivity, Large int. Wall + contents (Ex vivo biodistribution; 5 min after injection): 0.20 %ID/g tissue
- Uptake of fluorine-18-radioactivity, Large int. Wall + contents (Ex vivo biodistribution; 15 min after injection): 0.24 %ID/g tissue
- Uptake of fluorine-18-radioactivity, Large int. Wall + contents (Ex vivo biodistribution; 30 min after injection): 0.26 %ID/g tissue
- Uptake of fluorine-18-radioactivity, Large int. Wall + contents (Ex vivo biodistribution; 60 min after injection): 0.41 %ID/g tissue
- Uptake of fluorine-18-radioactivity, Large int. Wall + contents (Ex vivo biodistribution; 90 min after injection): 0.29 %ID/g tissue
- Uptake of fluorine-18-radioactivity, Liver (Ex vivo biodistribution; 5 min after injection): 0.78 %ID/g tissue
- Uptake of fluorine-18-radioactivity, Liver (Ex vivo biodistribution; 15 min after injection): 0.87 %ID/g tissue
- Uptake of fluorine-18-radioactivity, Liver (Ex vivo biodistribution; 30 min after injection): 0.60 %ID/g tissue
- Uptake of fluorine-18-radioactivity, Liver (Ex vivo biodistribution; 60 min after injection): 0.37 %ID/g tissue
- Uptake of fluorine-18-radioactivity, Liver (Ex vivo biodistribution; 90 min after injection): 0.26 %ID/g tissue
- Uptake of fluorine-18-radioactivity, Lung (Ex vivo biodistribution; 5 min after injection): 19.83 %ID/g tissue
- Uptake of fluorine-18-radioactivity, Lung (Ex vivo biodistribution; 15 min after injection): 10.24 %ID/g tissue
- Uptake of fluorine-18-radioactivity, Lung (Ex vivo biodistribution; 30 min after injection): 5.73 %ID/g tissue
- Uptake of fluorine-18-radioactivity, Lung (Ex vivo biodistribution; 60 min after injection): 3.01 %ID/g tissue
- Uptake of fluorine-18-radioactivity, Lung (Ex vivo biodistribution; 90 min after injection): 2.00 %ID/g tissue
- Uptake of fluorine-18-radioactivity, Muscle (Ex vivo biodistribution; 5 min after injection): 0.07 %ID/g tissue
- Uptake of fluorine-18-radioactivity, Muscle (Ex vivo biodistribution; 15 min after injection): 0.07 %ID/g tissue
- Uptake of fluorine-18-radioactivity, Muscle (Ex vivo biodistribution; 30 min after injection): 0.11 %ID/g tissue
- Uptake of fluorine-18-radioactivity, Muscle (Ex vivo biodistribution; 60 min after injection): 0.16 %ID/g tissue
- Uptake of fluorine-18-radioactivity, Muscle (Ex vivo biodistribution; 90 min after injection): 0.18 %ID/g tissue
- Uptake of fluorine-18-radioactivity, Salivary x2 (Ex vivo biodistribution; salivary x2, 5 min after injection): 0.59 %ID/g tissue
- Uptake of fluorine-18-radioactivity, Salivary x2 (Ex vivo biodistribution; salivary x2, 15 min after injection): 1.34 %ID/g tissue
- Uptake of fluorine-18-radioactivity, Salivary x2 (Ex vivo biodistribution; salivary x2, 30 min after injection): 0.88 %ID/g tissue
- Uptake of fluorine-18-radioactivity, Salivary x2 (Ex vivo biodistribution; salivary x2, 60 min after injection): 1.00 %ID/g tissue
- Uptake of fluorine-18-radioactivity, Salivary x2 (Ex vivo biodistribution; salivary x2, 90 min after injection): 0.89 %ID/g tissue
- Uptake of fluorine-18-radioactivity, Small int. wall + contents (Ex vivo biodistribution; 5 min after injection): 0.69 %ID/g tissue
- Uptake of fluorine-18-radioactivity, Small int. wall + contents (Ex vivo biodistribution; 15 min after injection): 1.07 %ID/g tissue
- Uptake of fluorine-18-radioactivity, Small int. wall + contents (Ex vivo biodistribution; 30 min after injection): 1.44 %ID/g tissue
- Uptake of fluorine-18-radioactivity, Small int. wall + contents (Ex vivo biodistribution; 60 min after injection): 1.80 %ID/g tissue
- Uptake of fluorine-18-radioactivity, Small int. wall + contents (Ex vivo biodistribution; 90 min after injection): 2.04 %ID/g tissue
- Uptake of fluorine-18-radioactivity, Stomach wall + contents (Ex vivo biodistribution; 5 min after injection): 0.27 %ID/g tissue
- Uptake of fluorine-18-radioactivity, Stomach wall + contents (Ex vivo biodistribution; 15 min after injection): 0.65 %ID/g tissue
- Uptake of fluorine-18-radioactivity, Stomach wall + contents (Ex vivo biodistribution; 30 min after injection): 0.43 %ID/g tissue
- Uptake of fluorine-18-radioactivity, Stomach wall + contents (Ex vivo biodistribution; 60 min after injection): 0.33 %ID/g tissue
- Uptake of fluorine-18-radioactivity, Stomach wall + contents (Ex vivo biodistribution; 90 min after injection): 0.44 %ID/g tissue
- Uptake of fluorine-18-radioactivity, Testis (Ex vivo biodistribution; 5 min after injection): 0.11 %ID/g tissue
- Uptake of fluorine-18-radioactivity, Testis (Ex vivo biodistribution; 15 min after injection): 0.10 %ID/g tissue
- Uptake of fluorine-18-radioactivity, Testis (Ex vivo biodistribution; 30 min after injection): 0.13 %ID/g tissue
- Uptake of fluorine-18-radioactivity, Testis (Ex vivo biodistribution; 60 min after injection): 0.14 %ID/g tissue
- Uptake of fluorine-18-radioactivity, Testis (Ex vivo biodistribution; 90 min after injection): 0.14 %ID/g tissue
- Fraction of radioactivity unbound to the plasma proteins [1]: 32.8 ± 8.8%
- Unchanged radiotracer, share of radioactivity in the brain ([2]; brain homogenate): 53.6 ± 1.6%
- Unchanged radiotracer, share of radioactivity in the plasma ([2]; plasma): 11.1 ± 2.6%
- Ki (CBR): > 1000 nM
